In brackets after ≈: the same amount, converted by molar mass.

Among the data in paper PMC6689975, “Novel Cell Wall Antifungals Reveal a Special Synergistic Activity in pbr1 Mutants Resistant to the Glucan Synthesis Antifungals Papulacandins and Echinocandins” (Frontiers in Microbiology, 2019) are MIC values, retold here.

This assay deals with Candida albicans C. a.^g (Table 6). Kind of assay: microbe, parasite or virus in culture. Further details: species or system yeast; micro tube dilution MIC in YES (± 1.2 M sorbitol), complete growth inhibition by turbidity. The settings on record: 48 h, read-out: MIC. The method in brief:
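Broth microdilution in YEPD, YES or these media with 1.2 M sorbitol; early log-phase cells at 2 X 10^6 cells/ml exposed to compound (up to 200 μg/ml, 2% DMSO final) at 30°C. Turbidity read at 24 and 48 h; MIC = lowest concentration giving complete inhibition (clear medium), ≥3 independent experiments.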

`CC[C@H](C)C[C@H](C)CCCCCCCCC(=O)N[C@H]1C[C@@H](O)[C@@H](NCCN)NC(=O)[C@@H]2[C@@H](O)CCN2C(=O)[C@H]([C@H](O)CCN)NC(=O)[C@H]([C@H](O)[C@@H](O)c2ccc(O)cc2)NC(=O)[C@@H]2C[C@@H](O)CN2C(=O)[C@H]([C@@H](C)O)NC1=O` [caspofungin]: the MIC came out at 50 µg/mL (≈ 45.7 µM).
